pIC50: −log10 of the molar value. ≈ marks a conversion by molar mass, not a printed value.
Tests used:
[1] = test system: Enterococcus faecalis; assay: Antibacterial activity against Enterococcus faecalis ATCC 29212 assessed as diameter of inhibition zone at 0.5 mg/ml incubated for 24 hrs by agar diffusion method; assay type: functional; conditions: read-out: DIZ
[2] = test system: Staphylococcus aureus; assay: Antibacterial activity against Staphylococcus aureus ATCC 29213 assessed as diameter of inhibition zone at 0.5 mg/ml incubated for 24 hrs by agar diffusion method; assay type: functional; conditions: read-out: DIZ
[3] = test system: Escherichia coli; assay: Antibacterial activity against Escherichia coli ATCC 25922 assessed as diameter of inhibition zone at 0.5 mg/ml incubated for 24 hrs by agar diffusion method; assay type: functional; conditions: read-out: DIZ
[4] = test system: Salmonella typhimurium; assay: Antibacterial activity against Salmonella typhi ATCC 6539 assessed as diameter of inhibition zone at 0.5 mg/ml incubated for 24 hrs by agar diffusion method; assay type: functional, Salmonella enterica subsp. enterica serovar Typhimurium; conditions: Salmonella enterica, read-out: DIZ
[5] = test system: Candida albicans; assay: Antifungal activity against Candida albicans ATCC 10231 assessed as diameter of inhibition zone at 0.5 mg/ml incubated for 24 hrs by agar diffusion method; assay type: functional; conditions: read-out: DIZ
[6] = test system: Aspergillus brasiliensis; assay: Antifungal activity against Aspergillus brasiliensis ATCC 16404 assessed as diameter of inhibition zone at 0.5 mg/ml incubated for 72 hrs by agar diffusion method; assay type: functional; conditions: read-out: DIZ
[7] = test system: Enterococcus faecalis; assay: Antibacterial activity against Enterococcus faecalis ATCC 29212 assessed as reduction in bacterial growth incubated for 1 day by paper disk diffusion method; assay type: functional; conditions: ATCC 29212, 24 h
[8] = test system: Staphylococcus aureus; assay: Antibacterial activity against Staphylococcus aureus ATCC 29213 assessed as reduction in bacterial growth incubated for 1 day by paper disk diffusion method; assay type: functional; conditions: ATCC 29213, 24 h
[9] = test system: Escherichia coli; assay: Antibacterial activity against Escherichia coli ATCC 25922 assessed as reduction in bacterial growth incubated for 1 day by paper disk diffusion method; assay type: functional; conditions: ATCC 25922, 24 h
[10] = test system: Salmonella typhimurium; assay: Antibacterial activity against Salmonella typhi ATCC 6539 assessed as reduction in bacterial growth incubated for 1 day by paper disk diffusion method; assay type: functional, Salmonella enterica subsp. enterica serovar Typhimurium; conditions: Salmonella enterica, ATCC 6539, 24 h
[11] = test system: Candida albicans; assay: Antifungal activity against Candida albicans ATCC 10231 assessed as reduction in bacterial growth incubated for 1 day by paper disk diffusion method; assay type: functional; conditions: ATCC 10231, 24 h
[12] = test system: Aspergillus brasiliensis; assay: Antifungal activity against Aspergillus brasiliensis ATCC 16404 assessed as reduction in bacterial growth incubated for 3 days by paper disk diffusion method; assay type: functional; conditions: ATCC 16404, 72 h, time 3 day
[13] = test system: Enterococcus faecalis; assay: Bactericidal activity against Enterococcus faecalis ATCC 29212 incubated for 24 hrs followed by transferring to freshly prepared broth medium and measured after 24 hrs by broth microdilution assay; assay type: functional; conditions: time 48 hrs
[14] = test system: Staphylococcus aureus; assay: Bactericidal activity against Staphylococcus aureus ATCC 29213 incubated for 24 hrs followed by transferring to freshly prepared broth medium and measured after 24 hrs by broth microdilution assay; assay type: functional; conditions: time 48 hrs
[15] = test system: Escherichia coli; assay: Bactericidal activity against Escherichia coli ATCC 25922 incubated for 24 hrs followed by transferring to freshly prepared broth medium and measured after 24 hrs by broth microdilution assay; assay type: functional; conditions: time 48 hrs
[16] = test system: Salmonella typhimurium; assay: Bactericidal activity against Salmonella typhi ATCC 6539 incubated for 24 hrs followed by transferring to freshly prepared broth medium and measured after 24 hrs by broth microdilution assay; assay type: functional, Salmonella enterica subsp. enterica serovar […]; conditions: Salmonella enterica, time 48 hrs
[17] = test system: Candida albicans; assay: Fungicidal activity against Candida albicans ATCC 10231 incubated for 24 hrs followed by transferring to freshly prepared broth medium and measured after 24 hrs by broth microdilution assay; assay type: functional; conditions: time 48 hrs
[18] = test system: Aspergillus brasiliensis; assay: Fungicidal activity against Aspergillus brasiliensis ATCC 16404 incubated for 72 hrs followed by transferring to freshly prepared broth medium and measured after 24 hrs by broth microdilution assay; assay type: functional; conditions: time 96 hrs
[19] = test system: Staphylococcus aureus; assay: Antibacterial activity against multidrug resistant Staphylococcus aureus ATCC 43300 assessed as diameter of inhibition zone at 0.5 mg/ml incubated for 24 hrs by agar diffusion method; assay type: functional; conditions: read-out: DIZ
[20] = test system: Staphylococcus aureus; assay: Antibacterial activity against multidrug resistant Staphylococcus aureus ATCC 33591 assessed as diameter of inhibition zone at 0.5 mg/ml incubated for 24 hrs by agar diffusion method; assay type: functional; conditions: read-out: DIZ
[21] = test system: Escherichia coli; assay: Antibacterial activity against multidrug resistant Escherichia coli ATCC BAA-196 assessed as diameter of inhibition zone at 0.5 mg/ml incubated for 24 hrs by agar diffusion method; assay type: functional; conditions: read-out: DIZ
[22] = test system: Pseudomonas aeruginosa; assay: Antibacterial activity against multidrug resistant Pseudomonas aeruginosa ATCC BAA-2111 assessed as diameter of inhibition zone at 0.5 mg/ml incubated for 24 hrs by agar diffusion method; assay type: functional; conditions: read-out: DIZ
[23] = test system: Staphylococcus aureus; assay: Antibacterial activity against multidrug resistant Staphylococcus aureus ATCC 43300 assessed as reduction in bacterial growth incubated for 1 day by paper disk diffusion method; assay type: functional; conditions: ATCC 43300, 24 h
[24] = test system: Staphylococcus aureus; assay: Antibacterial activity against multidrug resistant Staphylococcus aureus ATCC 33591 assessed as reduction in bacterial growth incubated for 1 day by paper disk diffusion method; assay type: functional; conditions: ATCC 33591, 24 h
[25] = test system: Escherichia coli; assay: Antibacterial activity against multidrug resistant Escherichia coli ATCC BAA-196 assessed as reduction in bacterial growth incubated for 1 day by paper disk diffusion method; assay type: functional; conditions: ATCC BAA-196, 24 h
[26] = test system: Pseudomonas aeruginosa; assay: Antibacterial activity against multidrug resistant Pseudomonas aeruginosa ATCC BAA-2111 assessed as reduction in bacterial growth incubated for 1 day by paper disk diffusion method; assay type: functional; conditions: ATCC BAA-2111, 24 h
[27] = test system: Staphylococcus aureus; assay: Bactericidal activity against Staphylococcus aureus ATCC 43300 incubated for 24 hrs followed by transferring to freshly prepared broth medium and measured after 24 hrs by broth microdilution assay; assay type: functional; conditions: time 48 hrs
[28] = test system: Staphylococcus aureus; assay: Bactericidal activity against Staphylococcus aureus ATCC 33591 incubated for 24 hrs followed by transferring to freshly prepared broth medium and measured after 24 hrs by broth microdilution assay; assay type: functional; conditions: time 48 hrs
[29] = test system: Escherichia coli; assay: Bactericidal activity against Escherichia coli ATCC BAA-196 incubated for 24 hrs followed by transferring to freshly prepared broth medium and measured after 24 hrs by broth microdilution assay; assay type: functional; conditions: time 48 hrs
[30] = test system: Pseudomonas aeruginosa; assay: Bactericidal activity against Pseudomonas aeruginosa ATCC BAA-2111 incubated for 24 hrs followed by transferring to freshly prepared broth medium and measured after 24 hrs by broth microdilution assay; assay type: functional; conditions: time 48 hrs
[31] = test system: Neutrophil; assay: Immunomodulatory activity in human neutrophils infected with bacteria assessed as increase in bacterial killing by measuring reduced NBT incubated for 30 mins by NBT dye based spectrophotometry; assay type: functional; set-up: concentration or dose not given beside the values; conditions: 0.5 h
[32] = molecular target: DNA gyrase (Staphylococcus aureus, UniProt P0A0K8+P20831); assay: Inhibition of Staphylococcus aureus DNA gyrase using relaxed pBR322 DNA as substrate incubated for 45 mins by agarose gel electrophoresis method; assay type: protein-complex assay
Sequence of DNA gyrase (P0A0K8 whole entry): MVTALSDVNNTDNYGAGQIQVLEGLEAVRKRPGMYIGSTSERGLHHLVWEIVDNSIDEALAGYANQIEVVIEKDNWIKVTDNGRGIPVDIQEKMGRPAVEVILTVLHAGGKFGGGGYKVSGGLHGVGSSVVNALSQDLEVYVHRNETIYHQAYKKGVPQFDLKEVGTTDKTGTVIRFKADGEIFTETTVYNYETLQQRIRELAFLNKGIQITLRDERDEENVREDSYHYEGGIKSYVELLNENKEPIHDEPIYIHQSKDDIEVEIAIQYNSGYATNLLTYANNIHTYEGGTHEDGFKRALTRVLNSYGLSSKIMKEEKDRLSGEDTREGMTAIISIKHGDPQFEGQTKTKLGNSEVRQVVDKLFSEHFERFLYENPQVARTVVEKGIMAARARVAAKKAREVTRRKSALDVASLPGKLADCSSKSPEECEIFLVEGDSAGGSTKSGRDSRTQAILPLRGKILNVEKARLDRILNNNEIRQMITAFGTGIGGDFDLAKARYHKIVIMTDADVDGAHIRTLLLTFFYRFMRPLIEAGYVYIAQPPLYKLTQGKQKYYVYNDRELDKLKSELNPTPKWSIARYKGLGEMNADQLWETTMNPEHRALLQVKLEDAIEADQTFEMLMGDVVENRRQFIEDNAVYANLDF
Sequence of DNA gyrase (P20831 whole entry): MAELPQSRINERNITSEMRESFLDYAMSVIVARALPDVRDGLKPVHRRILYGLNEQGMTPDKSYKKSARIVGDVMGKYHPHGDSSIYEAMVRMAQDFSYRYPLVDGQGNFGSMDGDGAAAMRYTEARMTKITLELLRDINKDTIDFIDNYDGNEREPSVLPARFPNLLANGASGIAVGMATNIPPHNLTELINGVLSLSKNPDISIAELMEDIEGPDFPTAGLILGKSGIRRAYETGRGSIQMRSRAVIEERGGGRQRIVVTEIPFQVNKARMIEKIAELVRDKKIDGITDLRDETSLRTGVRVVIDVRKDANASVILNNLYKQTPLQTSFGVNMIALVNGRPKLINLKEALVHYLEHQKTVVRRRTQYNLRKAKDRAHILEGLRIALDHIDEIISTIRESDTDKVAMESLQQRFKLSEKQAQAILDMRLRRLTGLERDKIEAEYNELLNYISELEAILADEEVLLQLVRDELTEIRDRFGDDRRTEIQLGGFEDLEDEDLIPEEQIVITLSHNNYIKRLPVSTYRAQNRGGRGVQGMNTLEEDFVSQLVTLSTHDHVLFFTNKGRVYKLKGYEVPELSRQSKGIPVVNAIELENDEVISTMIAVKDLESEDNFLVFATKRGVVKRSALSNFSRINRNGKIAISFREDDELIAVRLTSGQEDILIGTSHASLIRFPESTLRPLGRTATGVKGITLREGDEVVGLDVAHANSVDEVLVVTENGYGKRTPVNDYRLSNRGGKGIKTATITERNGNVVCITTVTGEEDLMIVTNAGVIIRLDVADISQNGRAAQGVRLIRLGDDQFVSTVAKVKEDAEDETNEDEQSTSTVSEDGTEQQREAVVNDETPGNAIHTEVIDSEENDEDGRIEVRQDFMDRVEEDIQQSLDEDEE

SMILES | zone of inhibition at 500 µg/mL [1] [mm] | zone of inhibition at 500 µg/mL [2] [mm] | zone of inhibition at 500 µg/mL [3] [mm] | zone of inhibition at 500 µg/mL [4] [mm] | zone of inhibition at 500 µg/mL [5] [mm] | zone of inhibition at 500 µg/mL [6] [mm] | MIC [7] [µg/mL] | MIC [8] [µg/mL] | MIC [9] [µg/mL] | MIC [10] [µg/mL] | MIC [11] [µg/mL] | MIC [12] [µg/mL] | MBC [13] [µg/mL] | MBC [14] [µg/mL] | MBC [15] [µg/mL] | MBC [16] [µg/mL] | MFC [17] [µg/mL] | MFC [18] [µg/mL] | zone of inhibition at 500 µg/mL [19] [mm] | zone of inhibition at 500 µg/mL [20] [mm] | other results
CCOC(=O)/C(C#N)=C1\C(=O)Nc2ccc(S(=O)(=O)N3CCOCC3)cc21 | 24 | 25 | 26 | 24 | 23 | 18 | 3.9 (≈ 9.96 µM) | 15.6 (≈ 39.9 µM) | 3.9 (≈ 9.96 µM) | 31.2 (≈ 79.8 µM) | 6.25 (≈ 16 µM) | 88.3 (≈ 226 µM) | 7.8 (≈ 19.9 µM) | 21.9 (≈ 55.9 µM) | 7.8 (≈ 19.9 µM) | 62.5 (≈ 160 µM) | 10.6 (≈ 27.1 µM) | 124 (≈ 316 µM) | 25 | 25 | zone of inhibition at 500 µg/mL [21]: 26 mm; zone of inhibition at 500 µg/mL [22]: 24 mm; MIC [23]: 1.95 µg/mL (≈ 4.98 µM); MIC [24]: 1.95 µg/mL (≈ 4.98 µM); MIC [25]: 1.57 µg/mL (≈ 4.01 µM); MIC [26]: 3.9 µg/mL (≈ 9.96 µM); MBC [27]: 3.12 µg/mL (≈ 7.97 µM); MBC [28]: 3.7 µg/mL (≈ 9.45 µM); MBC [29]: 3.14 µg/mL (≈ 8.02 µM); MBC [30]: 7.8 µg/mL (≈ 19.9 µM); Activity [31]: 152.3%; pIC50 [32]: 4.57
CC(=O)C1=C(c2ccccc2)OC(N)=C(C#N)C12C(=O)Nc1ccc(S(=O)(=O)N3CCCCC3)cc12 (stereo unspecified) | 23 | 24 | 22 | 22 | 23 | 19 | 31.5 (≈ 62.4 µM) | 35.5 (≈ 70.5 µM) | 17.8 (≈ 35.2 µM) | 62.5 (≈ 124 µM) | 15.6 (≈ 31 µM) | 88.3 (≈ 175 µM) | 43.7 (≈ 86.7 µM) | 58.6 (≈ 116 µM) | 28.4 (≈ 56.3 µM) | 87.5 (≈ 173 µM) | 31.2 (≈ 61.9 µM) | 150 (≈ 298 µM) | 25 | 26 | zone of inhibition at 500 µg/mL [21]: 27 mm; zone of inhibition at 500 µg/mL [22]: 25 mm; MIC [23]: 0.97 µg/mL (≈ 1.92 µM); MIC [24]: 0.78 µg/mL (≈ 1.55 µM); MIC [25]: 0.97 µg/mL (≈ 1.92 µM); MIC [26]: 1.95 µg/mL (≈ 3.86 µM); MBC [27]: 1.94 µg/mL (≈ 3.84 µM); MBC [28]: 1.56 µg/mL (≈ 3.09 µM); MBC [29]: 1.55 µg/mL (≈ 3.07 µM); MBC [30]: 3.9 µg/mL (≈ 7.73 µM); Activity [31]: 972%; pIC50 [32]: 4.74
CCOC(=O)C1=C(N)OC(c2ccccc2)=C(C(C)=O)C12C(=O)Nc1ccc(S(=O)(=O)N3CCOCC3)cc12 (stereo unspecified) | 25 | 23 | 25 | 23 | 24 | 21 | 12.5 (≈ 22.6 µM) | 62.5 (≈ 113 µM) | 6.25 (≈ 11.3 µM) | 35.5 (≈ 64.2 µM) | 17.8 (≈ 32.1 µM) | 35.5 (≈ 64.2 µM) | 25 (≈ 45.2 µM) | 81.2 (≈ 147 µM) | 12.5 (≈ 22.6 µM) | 49.8 (≈ 89.9 µM) | 24.9 (≈ 44.9 µM) | 71.1 (≈ 128 µM) | 23 | 24 | zone of inhibition at 500 µg/mL [21]: 24 mm; zone of inhibition at 500 µg/mL [22]: 25 mm; MIC [23]: 3.9 µg/mL (≈ 7.04 µM); MIC [24]: 3.9 µg/mL (≈ 7.04 µM); MIC [25]: 3.9 µg/mL (≈ 7.04 µM); MIC [26]: 2.6 µg/mL (≈ 4.7 µM); MBC [27]: 7.8 µg/mL (≈ 14.1 µM); MBC [28]: 7.8 µg/mL (≈ 14.1 µM); MBC [29]: 6.24 µg/mL (≈ 11.3 µM); MBC [30]: 5.2 µg/mL (≈ 9.39 µM); Activity [31]: 95.6%; pIC50 [32]: 4.70

Reference: ChEMBL document CHEMBL4680155, “One-pot synthesis and molecular docking of some new spiropyranindol-2-one derivatives as immunomodulatory agents and in vitro antimicrobial potential with DNA gyrase inhibitor” (Eur J Med Chem, 2020)
